{
  "source": "patent US20050112573A1",
  "about": "“Method of detecting toxic substance” (priority 2001, published 2005)",
  "test_system": "yeast genes (level of expressed mRNA)",
  "test": "DNA chip analysis of expressed mRNA of yeast genes after 2 h culture with a toxic chemical substance",
  "assay_type": "cell-based, Saccharomyces cerevisiae S288C",
  "details": "for The level of expressed mRNA in the presence of chemical substance/ (ratio to absence of chemical substance): stress protein genes, DNA chip; for The level of expressed mRNA in the presence of chemical substance/ in its absence, gene YPR184W: yeast gene YPR184W",
  "summary_of_the_method": "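S. cerevisiae S288C grown at 25° C in YPD; toxicant added at log phase at growth-inhibitory, non-lethal levels for 2 h, untreated cells as control. Poly(A) mRNA reverse-transcribed with Cy3/Cy5-dUTP, hybridized to whole-genome chip at 65° C >12 h; value is fluorescence ratio versus untreated.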",
  "data": [
    {"smiles": "CCCCC[C@H](O)CC(=O)CCc1ccc(O)c(OC)c1", "note": "[(13), gingerol]", "values": [
      {"measurement": "The level of expressed mRNA in the presence of chemical substance/The level of expressed mRNA in the absence of chemical substance", "setting": "yeast gene YNL006W", "value": 2.3},
      {"measurement": "The level of expressed mRNA in the presence of chemical substance/The level of expressed mRNA in the absence of chemical substance", "setting": "yeast gene YNL007C", "value": 2.1},
      {"measurement": "The level of expressed mRNA in the presence of chemical substance/ (in its absence), gene YNL025C", "setting": "yeast gene YNL025C, ratio of DNA chip fluorescence intensity to that without chemical substance", "value": 1.3},
      {"measurement": "The level of expressed mRNA in the presence of chemical substance/ (ratio to absence of chemical substance)", "setting": "yeast gene YNL064C", "value": 1.1},
      {"measurement": "The level of expressed mRNA in the presence of chemical substance/ (ratio to absence), gene YNL073W", "setting": "yeast gene YNL073W, mitochondria-located protein genes, 2 h culture with chemical", "value": 1.2},
      {"measurement": "The level of expressed mRNA in the presence of chemical substance/The level of expressed mRNA in the absence of chemical substance", "setting": "yeast gene YNL093W", "value": 2.2},
      {"measurement": "The level of expressed mRNA in the presence of chemical substance/ (in its absence), gene YNL192W", "setting": "yeast gene YNL192W, ratio of DNA chip fluorescence intensity to that without chemical substance", "value": 2.7},
      {"measurement": "The level of expressed mRNA in the presence of chemical substance/The level of expressed mRNA in the absence of chemical substance", "setting": "yeast gene YNL333W", "value": 2.2},
      {"measurement": "The level of expressed mRNA in the presence of chemical substance/The level of expressed mRNA in the absence of chemical substance", "setting": "yeast gene YNR010W", "value": 2.8},
      {"measurement": "The level of expressed mRNA in the presence of chemical substance/The level of expressed mRNA in the absence of chemical substance", "setting": "yeast gene YNR069C", "value": 3.4},
      {"measurement": "The level of expressed mRNA in the presence of chemical substance/ (in its absence), gene YNR072W", "setting": "yeast gene YNR072W, ratio of DNA chip fluorescence intensity to that without chemical substance", "value": 1.5},
      {"measurement": "The level of expressed mRNA in the presence of chemical substance/ (ratio to absence of chemical substance)", "setting": "yeast gene YNR076W", "value": 0.9},
      {"measurement": "The level of expressed mRNA in the presence of chemical substance/The level of expressed mRNA in the absence of chemical substance", "setting": "yeast gene YOL013C", "value": 1.8},
      {"measurement": "The level of expressed mRNA in the presence of chemical substance/ (ratio to absence), gene YOL096C", "setting": "yeast gene YOL096C, mitochondria-located protein genes, 2 h culture with chemical", "value": 1.4},
      {"measurement": "The level of expressed mRNA in the presence of chemical substance/ (in its absence), gene YOL096C", "setting": "yeast gene YOL096C, ratio of DNA chip fluorescence intensity to that without chemical substance", "value": 1.4},
      {"measurement": "The level of expressed mRNA in the presence of chemical substance/ (in its absence), gene YOL108C", "setting": "yeast gene YOL108C, ratio of DNA chip fluorescence intensity to that without chemical substance", "value": 1.3},
      {"measurement": "The level of expressed mRNA in the presence of chemical substance/ (in its absence), gene YOL116W", "setting": "yeast gene YOL116W, ratio of DNA chip fluorescence intensity to that without chemical substance", "value": 0.8},
      {"measurement": "The level of expressed mRNA in the presence of chemical substance/ (ratio to absence of chemical substance)", "setting": "yeast gene YOL161C", "value": 1.2},
      {"measurement": "The level of expressed mRNA in the presence of chemical substance/The level of expressed mRNA in the absence of chemical substance", "setting": "yeast gene YOL164W", "value": 3.4},
      {"measurement": "The level of expressed mRNA in the presence of chemical substance/ (ratio to absence of chemical substance)", "setting": "yeast gene YOR008C", "value": 0.9},
      {"measurement": "The level of expressed mRNA in the presence of chemical substance/ (ratio to absence of chemical substance)", "setting": "yeast gene YOR009W", "value": 0.4},
      {"measurement": "The level of expressed mRNA in the presence of chemical substance/ (ratio to absence of chemical substance)", "setting": "yeast gene YOR010C", "value": 0.5},
      {"measurement": "The level of expressed mRNA in the presence of chemical substance/The level of expressed mRNA in the absence of chemical substance", "setting": "yeast gene YOR036W", "value": 2.1},
      {"measurement": "The level of expressed mRNA in the presence of chemical substance/ (in its absence), gene YOR103C", "setting": "yeast gene YOR103C, ratio of DNA chip fluorescence intensity to that without chemical substance", "value": 0.8},
      {"measurement": "The level of expressed mRNA in the presence of chemical substance/The level of expressed mRNA in the absence of chemical substance", "setting": "yeast gene YOR117W", "value": 2.3},
      {"measurement": "The level of expressed mRNA in the presence of chemical substance/The level of expressed mRNA in the absence of chemical substance", "setting": "yeast gene YOR124C", "value": 2.1},
      {"measurement": "The level of expressed mRNA in the presence of chemical substance/The level of expressed mRNA in the absence of chemical substance", "setting": "yeast gene YOR132W", "value": 2.5},
      {"measurement": "The level of expressed mRNA in the presence of chemical substance/The level of expressed mRNA in the absence of chemical substance", "setting": "yeast gene YOR157C", "value": 2.4},
      {"measurement": "The level of expressed mRNA in the presence of chemical substance/ (in its absence), gene YOR180C", "setting": "yeast gene YOR180C, ratio of DNA chip fluorescence intensity to that without chemical substance", "value": 0.9},
      {"measurement": "The level of expressed mRNA in the presence of chemical substance/The level of expressed mRNA in the absence of chemical substance", "setting": "yeast gene YOR181W", "value": 1.2},
      {"measurement": "The level of expressed mRNA in the presence of chemical substance/The level of expressed mRNA in the absence of chemical substance", "setting": "yeast gene YOR185C", "value": 2.2},
      {"measurement": "The level of expressed mRNA in the presence of chemical substance/The level of expressed mRNA in the absence of chemical substance", "setting": "yeast gene YOR198C", "value": 1.8},
      {"measurement": "The level of expressed mRNA in the presence of chemical substance/ (in its absence), gene YOR251C", "setting": "yeast gene YOR251C, ratio of DNA chip fluorescence intensity to that without chemical substance", "value": 1.0},
      {"measurement": "The level of expressed mRNA in the presence of chemical substance/The level of expressed mRNA in the absence of chemical substance", "setting": "yeast gene YOR259C", "value": 1.8},
      {"measurement": "The level of expressed mRNA in the presence of chemical substance/The level of expressed mRNA in the absence of chemical substance", "setting": "yeast gene YOR261C", "value": 2.5},
      {"measurement": "The level of expressed mRNA in the presence of chemical substance/The level of expressed mRNA in the absence of chemical substance", "setting": "yeast gene YOR288C", "value": 2.4},
      {"measurement": "The level of expressed mRNA in the presence of chemical substance/ (ratio to absence), gene YOR316C", "setting": "yeast gene YOR316C, mitochondria-located protein genes, 2 h culture with chemical", "value": 1.6},
      {"measurement": "The level of expressed mRNA in the presence of chemical substance/ (in its absence), gene YOR348C", "setting": "yeast gene YOR348C, ratio of DNA chip fluorescence intensity to that without chemical substance", "value": 1.1},
      {"measurement": "The level of expressed mRNA in the presence of chemical substance/The level of expressed mRNA in the absence of chemical substance", "setting": "yeast gene YOR355W", "value": 1.1},
      {"measurement": "The level of expressed mRNA in the presence of chemical substance/ (in its absence), gene YOR363C", "setting": "yeast gene YOR363C, ratio of DNA chip fluorescence intensity to that without chemical substance", "value": 1.3},
      {"measurement": "The level of expressed mRNA in the presence of chemical substance/The level of expressed mRNA in the absence of chemical substance", "setting": "yeast gene YOR383C", "value": 1.2},
      {"measurement": "The level of expressed mRNA in the presence of chemical substance/ (ratio to absence), gene YPL040C", "setting": "yeast gene YPL040C, mitochondria-located protein genes, 2 h culture with chemical", "value": 1.0},
      {"measurement": "The level of expressed mRNA in the presence of chemical substance/ (ratio to absence of chemical substance)", "setting": "yeast gene YPL059W", "value": 0.7},
      {"measurement": "The level of expressed mRNA in the presence of chemical substance/The level of expressed mRNA in the absence of chemical substance", "setting": "yeast gene YPL089C", "value": 1.3},
      {"measurement": "The level of expressed mRNA in the presence of chemical substance/The level of expressed mRNA in the absence of chemical substance", "setting": "yeast gene YPL109C", "value": 1.8},
      {"measurement": "The level of expressed mRNA in the presence of chemical substance/ (ratio to absence), gene YPL134C", "setting": "yeast gene YPL134C, mitochondria-located protein genes, 2 h culture with chemical", "value": 1.0},
      {"measurement": "The level of expressed mRNA in the presence of chemical substance/ (ratio to absence of chemical substance)", "setting": "yeast gene YPL140C", "value": 0.9},
      {"measurement": "The level of expressed mRNA in the presence of chemical substance/ (in its absence), gene YPL148C", "setting": "yeast gene YPL148C, ratio of DNA chip fluorescence intensity to that without chemical substance", "value": 0.6},
      {"measurement": "The level of expressed mRNA in the presence of chemical substance/The level of expressed mRNA in the absence of chemical substance", "setting": "yeast gene YPL149W", "value": 2.3},
      {"measurement": "The level of expressed mRNA in the presence of chemical substance/The level of expressed mRNA in the absence of chemical substance", "setting": "yeast gene YPL154C", "value": 3.1},
      {"measurement": "The level of expressed mRNA in the presence of chemical substance/ (ratio to absence of chemical substance)", "setting": "yeast gene YPL194W", "value": 1.4},
      {"measurement": "The level of expressed mRNA in the presence of chemical substance/ (ratio to absence of chemical substance)", "setting": "yeast gene YPR005C", "value": 0.7},
      {"measurement": "The level of expressed mRNA in the presence of chemical substance/The level of expressed mRNA in the absence of chemical substance", "setting": "yeast gene YPR103W", "value": 2.8},
      {"measurement": "The level of expressed mRNA in the presence of chemical substance/The level of expressed mRNA in the absence of chemical substance", "setting": "yeast gene YPR108W", "value": 2.6},
      {"measurement": "The level of expressed mRNA in the presence of chemical substance/ (in its absence), gene YPR165W", "setting": "yeast gene YPR165W, ratio of DNA chip fluorescence intensity to that without chemical substance", "value": 1.0},
      {"measurement": "The level of expressed mRNA in the presence of chemical substance/ in its absence, gene YPR184W", "setting": "energy system protein genes, 2 h culture with the chemical, ratio to control without chemical", "value": 2.5},
      {"measurement": "The level of expressed mRNA in the presence of chemical substance/ in its absence, gene YPR184W", "setting": "ratio of DNA chip fluorescence intensity to that without chemical substance", "value": 2.5}
    ]}
  ]
}
